Results from US11324787B2, “Analytical methods and arrays for use in the same” (SENZAGEN AB, priority 2017, dated 2022).
Values joined by “and” are separate entries in the source; they are usually repeats but may differ in a detail not shown here. Equal entries are not always repeated. “Also recorded” adds a separate entry of the source. Where two headings read alike, the source gives them in different places.

Assays:
[1] = test system: myeloid cell line derived from MUTZ-3
[2] = test system: myeloid cell line derived from MUTZ-3; remark: listed apart in the source
[3] = test system: myeloid cell line derived from MUTZ-3; remark: listed apart in the source
[4] = cited from earlier work; for binary class: sens / non-sens; for true CLP: test set
[5] = test system: myeloid cell line derived from MUTZ-3; test: GARD random forest model predicting CLP categories (52 transcripts, Example A); conditions: test set; for GARD predicted CLP: majority voting across replicates; for predicted CLP: separate replicates
[6] = cited from earlier work; for binary class (HP*): based on human potency [41] where available, otherwise according to CLP; for HP: human potency, chemicals of random forest training and test set; for Human potency [41]: test set
[7] = test system: myeloid cell line derived from MUTZ-3; test: Cytotoxicity / viability by flow cytometry (propidium iodide), 24 hours exposure; conditions: yes/no; MUTZ-3 derived cells
[8] = test system: myeloid cell line derived from MUTZ-3; test: GARD binary classification (SVM on GARD prediction signature, 200 transcripts); conditions: SVM, median calibrated decision value of replicates >0 = sensitizer
[9] = CLP annotation of 37 novel chemicals
[10] = chemicals of random forest training and test set

SMILES | CLP [4, 9] | CLP ([4]; Table 10, chemicals test set 1) | CLP [4, 10] | binary class [4, 10] | true CLP ([4]; per replicate line) | true CLP [4] | GARD predicted CLP [5] | predicted CLP [5] | binary class (HP*) [6] | cytotox [7] | HP [6] | Human potency [41] [6] | GARD binary prediction [8] | other results
CCCCOCC1CO1 (stereo not shown) [butyl glycidyl ether] | – | – | – | – | – | – | – | – | – | – | – | – | – | cytotox [1]: yes; GARD predicted CLP ([2]; human, 24 h): 1A; GARD binary classification relative to cut-off defined by benchmark samples [3]: close to the cut-off
CCOc1cc(C=O)ccc1O [ethyl vanillin] | – | – | – | – | – | – | – | – | – | – | – | – | – | GARD predicted CLP [2]: no cat; predicted CLP [2]: no cat; predicted CLP ([2]; human, 24 h): 1B
Clc1nc(Cl)nc(Cl)n1 [cyanuric chloride] | 1A | 1A | 1A | sens | 1A | 1A | no cat; also recorded: no category | no cat (2×) and 1B | S (HP 1-4 = S) | yes | – | – | – | –
O=CCCCC=O [glutaraldehyde] | 1A | 1A | 1A | sens | 1A | 1A | 1A | 1A | S (HP 1-4 = S) | yes | 2 | 2 | S | –
Nc1ccccc1 [aniline] | – | – | – | – | – | – | – | – | – | – | – | – | – | GARD binary classification relative to cut-off defined by benchmark samples [3]: close to the cut-off
CC(C)(O)CCCC1=CCC(C=O)CC1 (stereo not shown) [lyral] | 1B | 1B | 1B | sens | 1B | 1B | 1A | 1A (2×) and 1B | S (HP 1-4 = S) | yes | 2 | 2 | S | –
CCCCC/C(=C/c1ccccc1)CO [amylcinnamyl alcohol] | – | – | – | – | – | – | – | – | – | – | – | – | – | cytotox [1]: yes; GARD binary prediction [3]: S
O=C(OCc1ccccc1)c1ccccc1 [benzyl benzoate] | – | – | – | – | – | – | 1B | 1B | – | yes | – | – | S | –
CC(C)(c1ccc(OCC2CO2)cc1)c1ccc(OCC2CO2)cc1 (stereo not shown) [bisphenol A-diglycidyl ether] | – | – | – | – | – | – | 1A | 1A | – | – | – | – | – | GARD binary prediction [3]: S
CCCOC(=O)c1cc(O)c(O)c(O)c1 [propyl gallate] | 1A | – | 1A | sens | 1A | 1A | 1A | 1A | S (HP 1-4 = S) | yes | 2 | 2 | S | –
